Here are results for three molecules from patent US5831026A, “Process for purifying factor VIII” (Pharmacia & Upjohn AB, priority 1994, dated 1998).

Experiment [1] relates to metal-dependent proteases. Description: Protease assay with resorufin-labeled casein in harvest solution (conditioned medium). It is filed as biochemical, Chinese Hamster. Particulars: for Mean absorbance corrected: blank subtracted. As to the method:
The method chosen was a protease assay with casein which was resorufin-labeled. By treatment with proteases, resorufin-labeled peptides are released from the casein. The concentration of these resorufin-labeled peptides in the supernatant is a measure of the proteolytic activity present. The test sample was incubated at 37° C. for a period of time which was dependent upon the sample at issue. The absorption wave-length chosen was 574 run throughout the tests. […]
Preincubation of the conditioned medium with or without EDTA was conducted at 37° C. for 2 h. After the addition of substrate, further incubation was carried out for 17 h. The pH in the incubation mixture was 7.5.
Absorbance corrected, refers to the absorption after subtraction of the blank value.
Conditioned medium (containing human serum albumin) was clarified and imidazole subsequently added in an amount ranging from 3.6 mM up to 360 mM.
Conditioned medium (containing human serum albumin) was clarified and histidine subsequently added in an amount ranging from 0.14 mM to 13.6 mM.

Experiment [2] relates to factor VIII. Put plainly: Activity of factor VIII after addition of complexing agent to eluted solution from SP Sepharose FF, COATEST chromogenic assay. The class given is biochemical. To be noted: Example 8; for Factor VIII activity (%): 0 h without additive = 100. As to the method: Tests without EDTA present were carried out for comparison.
A conditioned medium (containing human serum albumin) from a different harvest than the previous Examples, was clarified and buffered with NH4 Ac. […] After elution, various amounts of EDTA were added to the resulting solution. Tests without EDTA present were carried out for comparison. The procoagulant activity of factor VIII was determined after storage at ambient temperature for up to 246 hours, in accordance to the procedure described in Example 5.
A conditioned medium (containing human serum albumin) from a different harvest than the previous Examples, was clarified and buffered with NH4 Ac. […] After elution, various amounts of EDTA were added to the resulting solution. Tests without EDTA present were carried out for comparison. The procoagulant activity of factor VIII was determined after storage at ambient temperature for up to 28 hours, in accordance to the procedure described in Example 5.
A conditioned medium (containing human serum albumin) from a different harvest than the previous Examples, was clarified and buffered with NH4 Ac. The resulting solution was loaded onto a column containing SP SEPHAROSE® FF. This cation-exchange chromatography step was performed at 10° C. […] After elution, EDTA or 1,10-Phenanthroline were added to the resulting solution.

Where [3] appears, read: 5 mM Phenanthroline, incubation 4.5 h ambient.
Setting [4] is: 5 mM Phenanthroline, incubation 7.5 h ambient.
[5] abbreviates: 5 mM Phenanthroline, incubation 24 h ambient.
Setting [6] is: 11 mM Phenanthroline, incubation 4.5 h ambient.
Setting [7] is: 11 mM Phenanthroline, incubation 7.5 h ambient.
Setting [8] is: 11 mM Phenanthroline, incubation 24 h ambient.

Turning to `N[C@@H](Cc1c[nH]cn1)C(=O)O` [Histidine, L-histidine], the Mean absorbance in experiment [1] (0.14 mM histidine) is recorded as 2561; in experiment [1] (0.7 mM histidine), 2857; in experiment [1] (1.4 mM histidine), 3153; in experiment [1] (7 mM histidine), 1495; in experiment [1] (13.6 mM histidine), 1684. The “Protease activity (%)” value in experiment [1] (0.14 mM histidine) was determined as 79%; in experiment [1] (0.7 mM histidine), 94%; in experiment [1] (1.4 mM histidine) it was 108%; in experiment [1] (7 mM histidine), 26%; in experiment [1] (13.6 mM histidine), 35%. Also, the Mean absorbance corrected is 1591 in experiment [1] (0.14 mM histidine); 1887 in experiment [1] (0.7 mM histidine); 2183 in experiment [1] (1.4 mM histidine); 525 in experiment [1] (7 mM histidine); 714 in experiment [1] (13.6 mM histidine).
Consider `c1cnc2c(c1)ccc1cccnc12` [Phenanthroline, 1,10-Phenanthroline], for which the “Factor VIII activity (IU/ml)” value in experiment [2] (setting [3]) stood at 750 IU/ml; in experiment [2] (setting [4]) it was 964 IU/ml; in experiment [2] (setting [5]), 933 IU/ml; in experiment [2] (setting [6]) it was 869 IU/ml; in experiment [2] (setting [7]), 996 IU/ml; in experiment [2] (setting [8]) it was 916 IU/ml. Moreover, the “Factor VIII activity (%)” value amounted to 84% in experiment [2] (setting [3]); 109% in experiment [2] (setting [4]); 105% in experiment [2] (setting [5]); 98% in experiment [2] (setting [6]); 112% in experiment [2] (setting [7]); 103% in experiment [2] (setting [8]).
Regarding `c1c[nH]cn1` [imidazole], the Mean absorbance was found to be 2891 in experiment [1] (3.6 mM imidazole); 2985 in experiment [1] (18 mM imidazole); 3190 in experiment [1] (36 mM imidazole); 1258 in experiment [1] (180 mM imidazole); 1143 in experiment [1] (360 mM imidazole). Further, the “Protease activity (%)” value in experiment [1] (3.6 mM imidazole) is 95%; in experiment [1] (18 mM imidazole) it was 100%; in experiment [1] (36 mM imidazole), 110%; in experiment [1] (180 mM imidazole), 14%; in experiment [1] (360 mM imidazole), 9%. Moreover, the Mean absorbance corrected in experiment [1] (3.6 mM imidazole) is 1921; in experiment [1] (18 mM imidazole), 2015; in experiment [1] (36 mM imidazole), 2220; in experiment [1] (180 mM imidazole), 288; in experiment [1] (360 mM imidazole), 173.
